The text below walks through data of patent publication US20260184687A1, “DIHYDROINDENE DERIVATIVES AS MALT1 INHIBITORS” (C4X Discovery Limited, priority 2022, published 2026).

SMILES strings stand for the structures.

The assay addresses T1, FL hMALT1 enzyme (Homo sapiens, UniProt Q9UDY8).
T1 sequence (Q9UDY8 1-824): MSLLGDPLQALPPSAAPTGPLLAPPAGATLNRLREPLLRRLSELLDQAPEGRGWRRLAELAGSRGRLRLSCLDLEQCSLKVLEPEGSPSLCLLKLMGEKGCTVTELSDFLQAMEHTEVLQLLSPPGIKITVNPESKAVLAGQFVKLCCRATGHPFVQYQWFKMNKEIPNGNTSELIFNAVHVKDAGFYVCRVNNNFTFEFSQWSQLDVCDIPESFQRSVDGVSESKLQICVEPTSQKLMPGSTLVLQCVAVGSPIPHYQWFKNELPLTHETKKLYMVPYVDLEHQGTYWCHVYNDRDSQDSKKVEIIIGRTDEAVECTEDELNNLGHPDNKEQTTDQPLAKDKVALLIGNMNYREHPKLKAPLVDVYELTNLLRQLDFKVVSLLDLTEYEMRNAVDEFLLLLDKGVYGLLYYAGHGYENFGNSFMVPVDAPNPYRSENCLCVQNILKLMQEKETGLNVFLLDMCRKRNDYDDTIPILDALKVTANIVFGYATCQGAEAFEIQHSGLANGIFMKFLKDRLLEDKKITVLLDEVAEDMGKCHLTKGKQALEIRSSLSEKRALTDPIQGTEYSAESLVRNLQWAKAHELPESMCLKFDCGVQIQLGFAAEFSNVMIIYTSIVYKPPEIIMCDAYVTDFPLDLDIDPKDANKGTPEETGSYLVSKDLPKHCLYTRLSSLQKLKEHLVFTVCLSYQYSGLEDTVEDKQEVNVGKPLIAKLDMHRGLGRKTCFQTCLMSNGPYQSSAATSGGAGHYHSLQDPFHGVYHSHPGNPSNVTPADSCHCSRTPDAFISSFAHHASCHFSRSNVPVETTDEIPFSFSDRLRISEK
Nature of the assay: biochemical.
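Further: Cell-free protease assay: enzyme preincubated with compound 30 min at room temperature, then cleavage of fluorogenic Ac-LVSR-AMC substrate (100 µM) tracked by fluorescence (ex 360/em 460 nm).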

A word on the IC50: it is the midpoint of a concentration-inhibition curve. High values mean weaker potency, low ones greater potency. On to `CN1CC(=O)NCC1C(=O)N(C)[C@@H](c1ccc(N[C@H]2Cc3ccccc3C2(C)C)cn1)C(F)(F)F` (single isomer, unassigned) [Example 202], for which the IC50 was determined as 160 nM.

With `CN(C(=O)C1CCNCC1)[C@@H](c1ccc(NC2Cc3ccccc3C2(C)C)nc1)C(F)(F)F` (single isomer, unassigned) [Example 149], the midpoint of inhibition, the IC50, lay at 240 nM. This IC50 lies about 1.5-fold higher than the previous one.

`CN(C(=O)[C@H]1CCC(=O)NC1)[C@@H](c1ccc(NC2Cc3ccc(Cl)c(F)c3C2)nc1)C(F)(F)F` (single isomer, unassigned) [Example 389] gave an IC50 of 40 nM.

On to `CN(C(=O)CO)[C@@H](c1ccc(NC2Cc3ccc(Cl)c(F)c3C2)cn1)C(F)(F)F` (single isomer, unassigned) [Example 367], for which the IC50 stood at 310 nM. Against the preceding compound, the IC50 is about 7.8-fold higher.

Take `CN1CCC(C(=O)N(C)[C@@H](c2ccc(NC3Cc4ccccc4C3(C)C)nc2)C(F)(F)F)CC1` (single isomer, unassigned) [Example 145]: the 50% inhibitory concentration (IC50) came to 230 nM.

Regarding `CN(C(=O)C1CCN(S(C)(=O)=O)CC1)[C@@H](c1ccc(NC2Cc3ccc(Cl)c(Cl)c3C2)cn1)C(F)(F)F` (single isomer, unassigned) [Example 326], it took 240 nM to reach half-maximal inhibition (IC50).

`CNC(=O)[C@H]1C[C@H](C(=O)N(C)[C@@H](c2ccc(NC3Cc4ccc(Cl)c(Cl)c4C3)cn2)C(F)(F)F)C1` (stereo partly drawn) [Example 363, (1,3-trans)-N^1-((1S)-1-(5-((4,5-Dichloro-2,3-dihydro-1H-inden-2-yl)amino)pyridin-2-yl)-2,2,2-trifluoroethyl)-N^1,N^3-dimethylcyclobutane-1,3-dicarboxamide] returned a half-maximal inhibitory concentration (IC50) of 70 nM.

The compound `CNC(=O)N1CCC12CC(C(=O)N(C)[C@@H](c1ccc(NC3Cc4ccccc4C3(C)C)cn1)C(F)(F)F)C2` (single isomer, unassigned) [Example 239] returned an IC50 of 150 nM. This IC50 lies about 2.1-fold higher than the previous one.

For the compound `CN(C(=O)C1CN2CCC1CC2)[C@@H](c1ccc(NC2Cc3ccccc3C2(C)C)cn1)C(F)(F)F` (single isomer, unassigned) [Example 139], 370 nM corresponded to half-maximal inhibition (IC50).

`CN(C(=O)[C@H]1C[C@@H](O)C1)[C@@H](c1ccc(NC2Cc3ccc(Cl)c(F)c3C2)cn1)C(F)(F)F` (single isomer, unassigned) [Example 383]: the concentration for half-maximal inhibition (IC50) worked out at 1600 nM.

Compound `CN(C(=O)C1C2CS(=O)(=O)CC21)[C@@H](c1ccc(NC2Cc3ccccc3C2(C)C)cn1)C(F)(F)F` (single isomer, unassigned) [Example 217] yielded a concentration for half-maximal inhibition (IC50) of 170 nM.

In the case of `CN(C(=O)C1CN(C(=O)CO)C1)[C@@H](c1ccc(NC2Cc3ccc(Cl)c(Cl)c3C2)cn1)C(F)(F)F` (single isomer, unassigned) [Example 378], the IC50 is 1290 nM.

Compound `CC(=O)N1CCC12CC(C(=O)N(C)[C@@H](c1ccc(NC3Cc4ccccc4C3(C)C)cn1)C(F)(F)F)C2` (single isomer, unassigned) [Example 236] returned a half-maximal inhibitory concentration (IC50) of 210 nM. This IC50 is about 6.1-fold lower than that of the compound before.

Take `CN(C(=O)C1CCS(=O)(=O)CC1)[C@@H](c1ccc(NC2Cc3ccc(F)cc3C2)cn1)C(F)(F)F` (single isomer, unassigned) [Example 258]: half-maximal inhibition (IC50) required 4500 nM.

For `CC(=O)N1CCC[C@@H]1C(=O)N(C)[C@@H](c1ccc(N[C@H]2Cc3ccccc3C2(C)C)cn1)C(F)(F)F` [Example 171, (R)-1-Acetyl-N—((S)-1-(5-(((S)-1,1-dimethyl-2,3-dihydro-1H-inden-2-yl)amino)pyridin-2-yl)-2,2,2-trifluoroethyl)-N-methylpyrrolidine-2-carboxamide], half-maximal inhibition (IC50) required 210 nM.

With `CN(C(=O)CN1CCCS1(=O)=O)[C@@H](c1ccc(NC2Cc3ccc(Cl)c(F)c3C2)cn1)C(F)(F)F` (single isomer, unassigned) [Example 362], inhibition was half-maximal at 280 nM (IC50).

In the case of `CN(C(=O)CN1CC(=O)NC1=O)[C@@H](c1ccc(NC2Cc3ccccc3C2(C)C)cn1)C(F)(F)F` (single isomer, unassigned) [Example 212], the midpoint of inhibition, the IC50, lay at 130 nM.

With `CN(C(=O)C1COCC(=O)N1)[C@@H](c1ccc(NC2Cc3ccccc3C2(C)C)cn1)C(F)(F)F` (single isomer, unassigned) [Example 163], the IC50 stood at 190 nM.

With `CN(C(=O)C1CN(S(C)(=O)=O)C1)[C@@H](c1ccc(NC2Cc3ccccc3C2(C)C)cn1)C(F)(F)F` (single isomer, unassigned) [Example 210], the IC50 was found to be 200 nM.

`CN(C(=O)C1CCS(=O)(=O)CC1)[C@@H](c1ccc(NC2Cc3cc(Cl)c(OC(F)F)cc3C2)cn1)C(F)(F)F` (stereo partly drawn) [Example 291, N-((1S)-1-(5-((5-Chloro-6-(difluoromethoxy)-2,3-dihydro-1H-inden-2-yl)amino)pyridin-2-yl)-2,2,2-trifluoroethyl)-N-methyltetrahydro-2H-thiopyran-4-carboxamide 1,1-dioxide] yielded an IC50 of 340 nM. Compared with the last compound, the IC50 is about 1.7-fold higher.

In turn, `CN(C(=O)C1CCS(=O)(=O)CC1)[C@@H](c1ccc(NC2Cc3cc(F)cc(F)c3C2)cn1)C(F)(F)F` (single isomer, unassigned) [Example 269] gave a half-inhibitory concentration (IC50) of 150 nM.

With `CN(C(=O)C1CCS(=O)(=O)CC1)[C@@H](c1ccc(NC2Cc3cccc(C#N)c3C2)cn1)C(F)(F)F` (single isomer, unassigned) [Example 257], 2000 nM corresponded to half-maximal inhibition (IC50).

`CN(C(=O)C1CCS(=O)(=O)CC1)[C@@H](c1ccc(NC2Cc3ccc(Cl)c(Cl)c3C2)cn1)C(F)(F)F` (single isomer, unassigned) [Example 278] came in with an IC50 of 350 nM.

On to `CN(C(=O)C1CCS(=O)(=O)CC1)[C@@H](c1ccc(NC2Cc3cc(Cl)cc(Cl)c3C2)cn1)C(F)(F)F` (single isomer, unassigned) [Example 282], for which the IC50 came to 340 nM.

On to `CN(C(=O)C1CCS(=O)(=O)CC1)[C@@H](c1ccc(NC2Cc3ccc(Cl)c(C(F)(F)F)c3C2)cn1)C(F)(F)F` (single isomer, unassigned) [Example 311], for which the IC50 is 300 nM.

For `CN(C(=O)C1CCNC(=O)C1)[C@@H](c1ccc(N[C@H]2Cc3ccc(Cl)cc3C2)cn1)C(F)(F)F` (single isomer, unassigned) [Example 313], inhibition was half-maximal at 190 nM (IC50).

As to `CN(C(=O)C1CCS(=O)(=O)CC1)[C@@H](c1ccc(NC2Cc3cccc(OC(F)F)c3C2)cn1)C(F)(F)F` (stereo partly drawn) [Example 333, N-((1S)-1-(5-((4-(Difluoromethoxy)-2,3-dihydro-1H-inden-2-yl)amino)pyridin-2-yl)-2,2,2-trifluoroethyl)-N-methyltetrahydro-2H-thiopyran-4-carboxamide 1,1-dioxide], the half-maximal inhibitory concentration (IC50) stood at 160 nM.

The compound `CN(C(=O)C1CCS(=O)(=O)CC1)[C@@H](c1ccc(NC2Cc3ccc(Cl)c(Cl)c3C2)nc1)C(F)(F)F` (single isomer, unassigned) [Example 345] yielded a concentration for half-maximal inhibition (IC50) of 7 nM.

Regarding `CN1CCCC(C(=O)N(C)[C@@H](c2ccc(NC3Cc4ccccc4C3(C)C)cn2)C(F)(F)F)C1` (single isomer, unassigned) [Example 128], the half-maximal inhibitory concentration (IC50) amounted to 400 nM. Against the preceding compound, the IC50 is about 57-fold higher.

`CN(C(=O)C1CCS(=O)(=O)C1)[C@@H](c1ccc(NC2Cc3ccc(Cl)c(Cl)c3C2)cn1)C(F)(F)F` (single isomer, unassigned) [Example 359] gave an IC50 of 480 nM.

In the case of `COCCN1CCC12CC(C(=O)N(C)[C@@H](c1ccc(NC3Cc4ccccc4C3(C)C)cn1)C(F)(F)F)C2` (single isomer, unassigned) [Example 242], the IC50 was 200 nM. This IC50 is about 2.4-fold lower than that of the compound before.

For `CN(C(=O)CN1CCNC1=O)[C@@H](c1ccc(NC2Cc3ccccc3C2(C)C)cn1)C(F)(F)F` (single isomer, unassigned) [Example 245], the midpoint of inhibition, the IC50, lay at 130 nM.

Take `CN(C(=O)C1CCS(=O)(=O)CC1)[C@@H](c1ccc(NC2Cc3ccc(F)cc3C2)cn1)C(F)(F)F` (single isomer, unassigned) [Example 259]: 180 nM corresponded to half-maximal inhibition (IC50). This IC50 and that of the compound before are within 1.5-fold of each other.

`CN(C(=O)[C@@H]1CNC(=O)C1)[C@@H](c1ccc(NC2Cc3ccc(Cl)c(C4CC4)c3C2)cn1)C(F)(F)F` (single isomer, unassigned) [Example 327] yielded an IC50 of 570 nM.

Compound `CN(C(=O)C1CCS(=O)(=O)CC1)[C@@H](c1ccc(NC2Cc3ccc(C4CC4)cc3C2)cn1)C(F)(F)F` (single isomer, unassigned) [Example 308] registered an IC50 of 1400 nM.

Consider `CN(C(=O)C1CCS(=O)(=O)CC1)[C@@H](c1ccc(NC2Cc3cc(F)cc(F)c3C2)cn1)C(F)(F)F` (single isomer, unassigned) [Example 268], for which the 50% inhibitory concentration (IC50) was 3400 nM.

On to `CN(C(=O)C1CCCNC1)[C@@H](c1ccc(NC2Cc3ccccc3C2(C)C)cn1)C(F)(F)F` (single isomer, unassigned) [Example 127], for which inhibition was half-maximal at 300 nM (IC50). Compared with the last compound, the IC50 is about 11-fold lower.

Take `CN(C(=O)C1CCS(=O)(=O)CC1)[C@@H](c1ccc(NC2Cc3c(F)ccc(Cl)c3C2)cn1)C(F)(F)F` (single isomer, unassigned) [Example 294]: the IC50 came out at 2400 nM.

`CN(C(=O)C1CN2CCC1CC2)[C@@H](c1ccc(NC2Cc3ccccc3C2(C)C)cn1)C(F)(F)F` (single isomer, unassigned) [Example 138] showed a half-maximal inhibitory concentration (IC50) of 780 nM.

Turning to `Cc1ncc(C(=O)N(C)[C@@H](c2ccc(NC3Cc4ccc(Cl)c(F)c4C3)cn2)C(F)(F)F)cn1` (single isomer, unassigned) [Example 348], the IC50 was 410 nM.
